Experiments:
SCD1 = target: T1, SCD1 (Homo sapiens, UniProt O00767); assay: Growth inhibition of humanized yeast strain expressing SCD1 as sole desaturase; format: cell-based; settings: humanized yeast strain, 40 h
T1 construct: host or cells: S. cerevisiae ole1Δ strain (W303 pdr1Δ pdr3Δ background), plasmid pRS316 with TDH3 promoter and CYC1 terminator
T1 sequence (O00767 1-359): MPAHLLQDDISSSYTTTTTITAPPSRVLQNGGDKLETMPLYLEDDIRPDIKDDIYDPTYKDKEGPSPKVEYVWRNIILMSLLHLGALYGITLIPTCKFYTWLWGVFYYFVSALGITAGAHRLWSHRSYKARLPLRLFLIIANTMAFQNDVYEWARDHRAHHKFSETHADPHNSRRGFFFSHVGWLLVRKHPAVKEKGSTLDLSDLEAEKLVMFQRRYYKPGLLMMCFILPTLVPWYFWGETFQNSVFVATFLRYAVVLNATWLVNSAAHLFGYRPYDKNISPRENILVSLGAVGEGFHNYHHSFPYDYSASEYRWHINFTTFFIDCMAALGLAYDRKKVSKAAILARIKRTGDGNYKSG
In short: (§1)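 OD600 growth read-out. ole1Δ yeast, pdr1Δ pdr3Δ, with Ole1/SCD1/SCD5 on a plasmid; SX-Ura media throughout; 2× cell density 0.02 in CSM-Galactose; DMSO compound dilutions; humidified 30° C.; Ole1 stopped at 24 h, SCD1/SCD5 at 40 h.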

SCD5 = target: T2, SCD5 (Homo sapiens, UniProt Q86SK9); assay: Growth inhibition of humanized yeast strain expressing SCD5 as sole desaturase; format: cell-based; settings: humanized yeast strain, 40 h
T2 construct: host or cells: S. cerevisiae ole1Δ strain (W303 pdr1Δ pdr3Δ background), plasmid pRS316 with TDH3 promoter and CYC1 terminator
T2 sequence (Q86SK9 1-330): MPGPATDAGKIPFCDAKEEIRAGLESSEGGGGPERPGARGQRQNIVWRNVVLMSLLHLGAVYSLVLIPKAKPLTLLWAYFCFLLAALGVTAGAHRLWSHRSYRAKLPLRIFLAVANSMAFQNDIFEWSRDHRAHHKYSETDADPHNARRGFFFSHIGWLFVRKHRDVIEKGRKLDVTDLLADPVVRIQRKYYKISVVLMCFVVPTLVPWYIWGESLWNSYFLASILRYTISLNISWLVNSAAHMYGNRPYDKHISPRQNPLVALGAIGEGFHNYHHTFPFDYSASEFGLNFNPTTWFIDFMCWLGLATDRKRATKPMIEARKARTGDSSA
In short: as §1

Compound	IC50 (SCD1) [µM]	IC50 (SCD5) [nM]
COC(=O)N1CCC(c2noc(-c3ccc4oc(=O)n(C5COC5)c4c3)n2)CC1 [Compound 1031]	> 45	1130
COC(=O)N1CC2(CC(c3noc(-c4ccc5cnn(C6COC6)c5c4)n3)C2)C1 [Compound 1032]	> 45	4100
CC(C)(C)C(=O)N1CC2(CC(c3noc(-c4ccc5cnn(C6COC6)c5c4)n3)C2)C1 [Compound 1033]	> 45	3910
COC(=O)N1CCN(c2noc(-c3ccc4cnn(C5COC5)c4c3)n2)CC(F)(F)C1 [Compound 1034]	> 45	639
O=C(CC1CC1)N1CCN(c2noc(-c3ccc4cnn(C5COC5)c4c3)n2)CC(F)(F)C1 [Compound 1035]	> 45	265
COC(=O)N1CCC(c2noc(-c3ccc4ccn(C5COC5)c4c3)n2)CC1 [Compound 1036]	> 45	10
COC(=O)N1CCC(c2noc(-c3ccc4ccn(C(C)C)c4c3)n2)CC1 [Compound 1037]	10.2	457
CCC(=O)N1CCN(c2noc(-c3ccc4cnn(C5COC5)c4c3)n2)CC(F)(F)C1 [Compound 1038]	> 45	2300
CC(C)(C)OC(=O)N1CCC(c2noc(-c3ccc4ccn(C5COC5)c4c3)n2)CC1 [Compound 1039]	15.7	10
CC(C)c1ncn2ccc(-c3nc(C4CCN(C(=O)OC(C)(C)C)CC4)no3)cc12 [Compound 1040]	> 45	791
CC(C)(C)OC(=O)N1CCC(c2noc(-c3cc(Br)c4cnn(C5COC5)c4c3)n2)CC1 [Compound 1041]	> 45	10
COC(=O)N1CCC(c2noc(-c3ccc4cnn(C5CCCC5)c4c3)n2)CC1 [Compound 1042]	> 45	79
COC(=O)N1CCC(c2noc(-c3cc(Br)c4cnn(C5COC5)c4c3)n2)CC1 [Compound 1043]	> 45	11
O=C(C1CCC1)N1CCC(c2nc(-c3ccc4cnn(C5COC5)c4c3)no2)CC1 [Compound 1044]	> 45	593
COC(=O)N1CCC(c2noc(-c3ccn4cnc(C(C)C)c4c3)n2)CC1 [Compound 1045]	≥ 45	935
O=C(C1CCC1)N1CCN(c2noc(-c3ccc4cnn(C5COC5)c4c3)n2)CC(F)(F)C1 [Compound 1046]	≥ 45	10
CC(C)(C)OC(=O)N1CCC(c2noc(-c3cnc4cnn(C5COC5)c4c3)n2)CC1 [Compound 1047]	≥ 45	10
CC(C)n1ccc2ccc(-c3nc(C4CCN(C(=O)OC(C)(C)C)CC4)no3)cc21 [Compound 1048]	> 45	16
CCC(=O)N1CCC(c2noc(-c3ccc4cnn([C@H]5CCOC5)c4c3)n2)CC1 [Compound 1049]	> 45	12

Compound	IC50 (SCD1) [µM]	IC50 (SCD5) [nM]
CCC(=O)N1CCC(c2noc(-c3ccc4cnn([C@@H]5CCOC5)c4c3)n2)CC1 [Compound 1050]	> 45	20
CC(C)n1ncc2ccc(-c3noc(C4CCN(C(C)C(F)(F)F)CC4)n3)cc21 (stereo not shown) [Compound 1051]	> 45	7500
COC(=O)N1CCC(c2noc(-c3cnc4cnn(C5COC5)c4c3)n2)CC1 [Compound 1052]	> 45	253
C[C@H]1C[C@H](c2noc(-c3ccc4cnn(C5COC5)c4c3)n2)CCN1C(=O)C1(F)CC1 [Compound 1053]	> 45	1.18
COC(=O)N1CC[C@@H](c2noc(-c3ccc4cnn(C5COC5)c4c3)n2)C[C@@H]1C [Compound 1054]	> 45	10
CC(C)C(=O)N1CC[C@@H](c2noc(-c3ccc4cnn(C5COC5)c4c3)n2)C[C@@H]1C [Compound 1055]	> 45	4.88
C[C@H]1C[C@H](c2noc(-c3ccc4cnn(C5COC5)c4c3)n2)CCN1C(=O)C1CCC1 [Compound 1056]	> 45	4.69
O=C(N1CCN(c2noc(-c3ccc4cnn(C5COC5)c4c3)n2)CC(F)(F)C1)C1(F)CC1 [Compound 1057]	> 45	23
CC(C)C(=O)N1CC[C@H](c2noc(-c3ccc4cnn(C5COC5)c4c3)n2)C[C@H]1C [Compound 1058]	> 45	3.67
COC(=O)N1CC[C@H](c2noc(-c3ccc4cnn(C5COC5)c4c3)n2)C[C@H]1C [Compound 1059]	> 45	2.23
CC1(OC(=O)N2CCC(c3noc(-c4ccc5cnn(C6CS(=O)(=O)C6)c5c4)n3)CC2)CC1 [Compound 1060]	> 45	184
O=C(C1CCC1)N1CCC(c2noc(-c3cc(F)c4cnn(C5COC5)c4c3)n2)CC1 [Compound 1061]	> 45	10
O=C(N1CCC(c2noc(-c3cc(F)c4cnn(C5COC5)c4c3)n2)CC1)C1(F)CC1 [Compound 1062]	29	10
COC(=O)N1CC2(C1)CN(c1noc(-c3ccc4cnn(C5COC5)c4c3)n1)C2 [Compound 1063]	> 45	3440
COC(=O)N1CCC(c2noc(-c3ccnc(OC4COC4)c3)n2)CC1 [Compound 1064]	> 45	3440
C[C@@H]1C[C@@H](c2noc(-c3ccc4cnn(C5COC5)c4c3)n2)CCN1C(=O)C1(F)CC1 [Compound 1065]	> 45	0.386
C[C@@H]1C[C@@H](c2noc(-c3ccc4cnn(C5COC5)c4c3)n2)CCN1C(=O)C1CCC1 [Compound 1066]	> 45	0.681
O=C(C1CC1)N1CCC(c2noc(-c3cc(F)c4cnn(C5COC5)c4c3)n2)CC1 [Compound 1067]	> 45	4.98
CC(C)C(=O)N1CCC(c2noc(-c3cc(F)c4cnn(C5COC5)c4c3)n2)CC1 [Compound 1068]	> 45	3.75

Compound	IC50 (SCD1) [µM]	IC50 (SCD5) [nM]
CC1(OC(=O)N2CCC(c3noc(-c4cc(F)c5cnn(C6COC6)c5c4)n3)CC2)CC1 [Compound 1069]	> 45	0.862
COC(=O)N1CCC(c2noc(-c3cc(C)c4cnn(C5COC5)c4c3)n2)CC1 [Compound 1070]	> 45	81
O=C(OC1CC1)N1CCC(c2noc(-c3cc(F)c4cnn(C5COC5)c4c3)n2)CC1 [Compound 1071]	> 45	3.03
CCC(=O)N1CCC(c2noc(-c3cc(F)c4cnn(C5COC5)c4c3)n2)CC1 [Compound 1072]	> 45	21
COC(=O)N1CCC(c2noc(-c3cc(F)c4cnn(C5CCOC5)c4c3)n2)CC1 (stereo not shown) [Compound 1073]	8.36	2.52
CC(C)(C)OC(=O)N1CC2(C1)CN(c1noc(-c3ccc4cnn(C5COC5)c4c3)n1)C2 [Compound 1074]	5.43	1960
CC(C)(C)OC(=O)N1CCC(c2noc(-c3cc(F)c4cnn(C5CCOC5)c4c3)n2)CC1 (stereo not shown) [Compound 1075]	4.4	10
COc1cc(-c2nc(C3CCN(C(=O)OC(C)(C)C)CC3)no2)cc2c1cnn2C1COC1 [Compound 1076]	> 45	1030
COC(=O)N1CCC(c2noc(-c3ccc4cnn(C5CCS(=O)(=O)C5)c4c3)n2)CC1 (stereo not shown) [Compound 1077]	> 45	300
COC(=O)N1CCC(c2noc(-c3ccc4cnn(C5CCC(F)(F)C5)c4c3)n2)CC1 (stereo not shown) [Compound 1078]	> 45	33
O=C(N1CCC(c2noc(-c3cccc(N4CCOCC4)c3)n2)CC1)C1(F)CC1 [Compound 1080]	> 45	501
COC(=O)N1CCC(c2noc(-c3ccnc(CC4CC4)c3)n2)CC1 [Compound 1081]	> 45	2430
CC(C)(C)OC(=O)N1CCC(c2noc(-c3ccnc(CC4CC4)c3)n2)CC1 [Compound 1082]	> 45	359
O=C(OC1CC1)N1CCN(c2noc(-c3ccc4cnn(C5COC5)c4c3)n2)CC(F)(F)C1 [Compound 1083]	> 45	33
O=C(OC1CCC1)N1CCC(c2nnc(-c3ccc4cnn(C5CCOC5)c4c3)o2)CC1 (stereo not shown) [Compound 1084]	> 45	27
COC(=O)N1CCC(c2noc(-c3cc(C#N)c4cnn(C5COC5)c4c3)n2)CC1 [Compound 1085]	> 45	532
CC(C)(C)OC(=O)N1CCC(c2noc(-c3cc(F)cc(N4CCOCC4)c3)n2)CC1 [Compound 1086]	> 45	19
O=C(N1CCC(c2noc(-c3ccnc(C4CCOC4)c3)n2)CC1)C1(F)CC1 (stereo not shown) [Compound 1087]	> 45	41
